In brackets after ≈: the same amount, converted by molar mass. Where two headings read alike, the source gives them in different places.
What was measured:
S. pyogenes 3029 = test: Intraperitoneal (IP) mouse infection model (ED50); type: in vivo; conditions: Streptococcus pyogenes, MAC-R S. pyogenes 3029
streptococci = test: organism not typed; type: cell-based
N. meningitidis = test: MIC, CLSI broth microdilution, invasive isolates; type: cell-based
Description: Example. […] Colonization of the nasopharynx (NP) by NM can lead to invasive meningococcal disease. Chemoprophylaxis is used to eradicate NP colonization and prevent transmission to nonimmune contacts. […] 62 isolates (91.9% blood culture) of NM were collected from 29 medical centers in North and South America and Europe (1997-2008). […] Serological identification was performed for serogroups (SGs) B, C, Y and W135.

U. urealyticum = test: MIC testing in 10B broth (colour change); type: cell-based; conditions: U. urealyticum (10 isolates)
S. pneumoniae [1] = test: microbe, parasite or virus in culture; type: cell-based; conditions: Streptococcus pneumoniae
pneumococci = test: microbe, parasite or virus in culture; type: cell-based, S. pneumoniae; conditions: Streptococcus pneumoniae, pneumococci, L4 mutations (27)
U. parvum = test: MIC testing in 10B broth (colour change); type: cell-based, Ureaplasma parvum; conditions: U. parvum (10 isolates)
S. pneumoniae [2] = type: cell-based
S. pyogenes = type: cell-based; set-up: MIC: unit not given beside the values; conditions: for MIC50 / MIC90: Streptococcus pyogenes, Macr-R
[3] = Neisseria meningitidis, 62 N. meningitidis isolates

CC[C@H]1OC(=O)[C@H](C)[C@@H](O[C@H]2C[C@@](C)(OC)[C@@H](O)[C@H](C)O2)[C@H](C)[C@@H](O[C@@H]2O[C@H](C)C[C@H](N(C)C)[C@H]2O)[C@](C)(O)C[C@@H](C)CN(C)[C@H](C)[C@@H](O)[C@]1(C)O [AZI, azithromycin] was tested, and the ED50 (S. pyogenes 3029) was > 150 mg/kg, the MIC50 (streptococci) was 0.06 µg/mL (≈ 0.0801 µM) and the MIC90 (streptococci) was 0.12 µg/mL (≈ 0.16 µM). For the same compound, the “MIC Range” value (streptococci) was “≦0.008-0.5 μg/ml”, the “% Susc.” value (N. meningitidis; CLSI (M100-S19, 2009) criteria) was 100.0% and the MIC (N. meningitidis; [3]) was 0.015 to 0.12 µg/mL (≈ 0.02 to 0.16 µM). For the same compound, the MIC50 (N. meningitidis; [3]) was 0.06 µg/mL (≈ 0.0801 µM), the MIC90 (N. meningitidis; [3]) was 0.12 µg/mL (≈ 0.16 µM) and the “MIC Range” value (U. urealyticum) was 0.5 to 4 µg/mL. For the same compound, the MIC50 (U. urealyticum; Ureaplasma urealyticum) was 2 µg/mL (≈ 2.67 µM), the MIC90 (U. urealyticum; Ureaplasma urealyticum) was 4 µg/mL (≈ 5.34 µM) and the MIC90 (S. pneumoniae [1]) was > 16 µg/mL. The MIC50 (pneumococci) was > 64 µg/mL, the MIC90 (pneumococci) was > 64 µg/mL and the “MIC Range” value (U. parvum) was 0.5 to 4 µg/mL. For the same compound, the MIC50 (U. parvum; Ureaplasma parvum, read-out: MIC50) was 2 µg/mL (≈ 2.67 µM), the MIC90 (U. parvum; Ureaplasma parvum, read-out: MIC90) was 4 µg/mL (≈ 5.34 µM) and the “single step mutation frequency” value (S. pneumoniae [2]; strain 1077 Macrolide-S, 2 × MIC) was 7.2 × 10^−9. For the same compound, the “single step mutation frequency” value (S. pneumoniae [2]; strain 1077 Macrolide-S, 4 × MIC) was <1.9 × 10^−10, the “single step mutation frequency” value (S. pneumoniae [2]; strain 1077 Macrolide-S, 8 × MIC) was <1.9 × 10^−10 and the “single step mutation frequency” value (S. pneumoniae [2]; strain 1635 Macrolide-R [erm(A)], 2 × MIC) was <2.0 × 10^−10. The “single step mutation frequency” value (S. pneumoniae [2]; strain 1635 Macrolide-R [erm(A)], 4 × MIC) was <2.0 × 10^−10, the “single step mutation frequency” value (S. pneumoniae [2]; strain 1635 Macrolide-R [erm(A)], 8 × MIC) was <2.0 × 10^−10 and the “single step mutation frequency” value (S. pneumoniae [2]; strain 7127 Macrolide-S [S20N in L4, A105V in L22], 2 × MIC) was <2.0 × 10^−10. The “single step mutation frequency” value (S. pneumoniae [2]; strain 7127 Macrolide-S [S20N in L4, A105V in L22], 4 × MIC) was <2.0 × 10^−10, the “single step mutation frequency” value (S. pneumoniae [2]; strain 7127 Macrolide-S [S20N in L4, A105V in L22], 8 × MIC) was <2.0 × 10^−10 and the MIC (S. pyogenes; MAC-R S. pyogenes 3029) was “(>64)”. The MIC50 (S. pyogenes; S. pyogenes TEL R, 10 strains) was > 32 µg/mL, the MIC90 (S. pyogenes; S. pyogenes TEL R, 10 strains) was > 32 µg/mL and the MIC50 (S. pyogenes; S. pyogenes TEL S, 30 strains) was > 32 µg/mL. For the same compound, the MIC90 (S. pyogenes; S. pyogenes TEL S, 30 strains) was > 32 µg/mL.

Reference: patent publication US9901592B2 (priority 2008, dated 2018)
